Literature values in US10980718B2, “Personal care compositions comprising poorly soluble compounds” (Conopco, Inc., priority 2016, dated 2021).

solubility of cystine in aqueous solutions by pH (aqueous solutions with pH less than 2 or pH above 8): more soluble | natural solubility limit of cystine (room temperature and neutral pH): 0.01 wt %
SMILES: N[C@@H](CSSC[C@H](N)C(=O)O)C(=O)O [cystine]
